What all share (assay type): in vivo, mice
Test [1] concerns CTG-0192 erlotinib-sensitive NSCLC TumorGraft. The test can be described thus: NSCLC TumorGraft model CTG-0192. How it is done: (§1) Methods (for the experiments shown in FIGS. 10 and 11) • Female immunocompromised nu/nu mice (Harlan) between 6-9 weeks of age were housed on irradiated papertwist-enriched ⅛″ corncob bedding (Sheperd) in individual HEPA ventilated cages (Innocage® IVC, Innovive USA) on a 12-hour light-dark cycle at 68-74° F. (20-23° C.) and 30-70% humidity. Animals were fed water ad libitum (reverse osmosis, 2 ppm Cl2) and an irradiated Test rodent diet (Teklad 2919) consisting of 19% protein, 9% fat, and 4% fiber. • Tumor Models: Champions TumorGraft models of NSCLC are owned by Champions Oncology. In this study, animals were implanted unilaterally on the right flank with tumor fragments harvested from host animals. […] Erlotinib (manufacturer: OSI Pharmaceuticals; National Drug Code: 50242-062-01; Lot #: US0002) was formulated using 100% PEG-400 as the vehicle according to manufacturer's specifications.
(§2) Efficacy measurements: Beginning Day 0, tumor dimensions were measured twice weekly by digital caliper (Fowler Ultra-Cal IV) and data including individual and mean estimated tumor volumes (Mean TV±SEM) were recorded for each group; tumor volume was calculated using the formula TV=width^2×length×0.52. At study completion, percent tumor growth inhibition (% TGI) values were calculated and reported for each treatment group (T) versus control (C) using initial (i) and final (f) tumor measurements by the formula: % TGI=1−Tf−Ti/Cf−C; single agent or combination therapies resulting in a TGI>50 at study completion are considered active in the tested model at the evaluated treatment regimen according to NCI guidelines. Individual mice reporting a tumor volume ≤50% of the Day 0 measurement for two consecutive measurements over a seven day period were considered partial responders (PR). If the PR persisted until study completion, percent tumor regression (% TR) was determined using the formula: % TR=1−Tf/Ti×100; a mean value was calculated if multiple PR mice occurred in one group. Individual mice lacking palpable tumors (<4×4 mm^2 for two consecutive measurements over a seven day period) were classified as complete responders (CR); a CR that persisted until study completion was considered a tumor-free survivor (TFS). TFS animals are excluded from efficacy calculations. Statistical differences in tumor volume were determined using a two-tailed One-Way Analysis of Variance (ANOVA) followed by the Dunett's multiple comparisons test comparing treated groups with control and combinations with standard agent alone when possible. All data collected in this study was managed electronically and stored on a redundant server system.

Test [2] deals with CTG-0170 erlotinib-insensitive primary NSCLC human TumorGraft. The test can be described thus: NSCLC TumorGraft model CTG-0170. As to conditions: CTG-0170, 10 days, 10 mg/kg iv/q4dx3. Here is the method: as §1, §2
The subject of test [3] is CTG-0165 erlotinib-insensitive primary NSCLC human TumorGraft. The test can be described thus: NSCLC TumorGraft model CTG-0165. As to conditions: CTG-0165, 37 days, 10 mg/kg iv/q4dx3. How it is done: as §1, §2
The subject of test [4] is CTG-0157 primary NSCLC human TumorGraft. As to the kind of experiment: NSCLC TumorGraft model CTG-0157. As to conditions: CTG-0157, 14 days, 10 mg/kg iv/q4dx3. Here is the method:
as §1
as §2, with “Individual mice reporting a tumor volume ≤50% of the Day 0 measurement for two consecutive measurements over a seven day period were considered partial responders (PR).” left out, “Individual mice lacking palpable tumors (<4×4 mm^2 for two consecutive measurements over a seven day period) were classified as complete responders (CR); a CR that persisted until study completion was considered a tumor-free survivor (TFS). TFS animals are excluded from efficacy calculations.” left out, “All data collected in this study was managed electronically and stored on a redundant server system.” left out

The test system of test [5] is CTG-0159 primary NSCLC human TumorGraft. The test can be described thus: NSCLC TumorGraft model CTG-0159. As to conditions: CTG-0159, 14 days, 10 mg/kg iv/q4dx3. How it is done:
as §1
as §2, with “Individual mice reporting a tumor volume ≤50% of the Day 0 measurement for two consecutive measurements over a seven day period were considered partial responders (PR).” left out, “Individual mice lacking palpable tumors (<4×4 mm^2 for two consecutive measurements over a seven day period) were classified as complete responders (CR); a CR that persisted until study completion was considered a tumor-free survivor (TFS). TFS animals are excluded from efficacy calculations.” left out, “All data collected in this study was managed electronically and stored on a redundant server system.” left out

Molecules are shown by their SMILES. Marks after values point to notes of the source that are not given here.

The record followed here is US10028956B2, “Methods of treating various cancers using an AXL/cMET inhibitor in combination with other agents” (Ignyta, Inc., priority 2013, dated 2018).

With `CC(=O)O[C@H]1C(=O)[C@@]2(C)[C@H]([C@H](OC(=O)c3ccccc3)[C@]3(O)C[C@H](OC(=O)[C@H](O)[C@@H](NC(=O)c4ccccc4)c4ccccc4)C(C)=C1C3(C)C)[C@]1(OC(C)=O)CO[C@@H]1C[C@@H]2O` [Paclitaxel, reference compound], the “% Tumor Growth Inhibition” value in test [1] (CTG-0192, 32 days, 10 mg/kg iv/q4dx3) came to 105%*; in test [2], 77%*; in test [3], 56%*; in test [4] it was 41%; in test [5], 25%*.

For the molecule `C#Cc1cccc(Nc2ncnc3cc(OCCOC)c(OCCOC)cc23)c1` [erlotinib, reference compound], in test [1] (CTG-0192, 35 mg/kg, po, qd×34), the “day of acquired resistance” value was approximately 29 days, the “tumor regrowth after discontinuation of dosing (day 34)” value is recorded as “rate of tumor regrowth was similar to control/vehicle” and the “tumor response during dosing” value is recorded as “initial sensitivity followed by acquired erlotinib-resistance”.
